# The source made the active and inactive calls.
# What was measured:
# Cytochrome P450 1A2 = target: T1, Cytochrome P450 1A2 (Homo sapiens, UniProt P05177);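 further: PubChem cytochrome P450 panel assay, CYP1A2 panel member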
# T1 sequence (P05177 whole entry): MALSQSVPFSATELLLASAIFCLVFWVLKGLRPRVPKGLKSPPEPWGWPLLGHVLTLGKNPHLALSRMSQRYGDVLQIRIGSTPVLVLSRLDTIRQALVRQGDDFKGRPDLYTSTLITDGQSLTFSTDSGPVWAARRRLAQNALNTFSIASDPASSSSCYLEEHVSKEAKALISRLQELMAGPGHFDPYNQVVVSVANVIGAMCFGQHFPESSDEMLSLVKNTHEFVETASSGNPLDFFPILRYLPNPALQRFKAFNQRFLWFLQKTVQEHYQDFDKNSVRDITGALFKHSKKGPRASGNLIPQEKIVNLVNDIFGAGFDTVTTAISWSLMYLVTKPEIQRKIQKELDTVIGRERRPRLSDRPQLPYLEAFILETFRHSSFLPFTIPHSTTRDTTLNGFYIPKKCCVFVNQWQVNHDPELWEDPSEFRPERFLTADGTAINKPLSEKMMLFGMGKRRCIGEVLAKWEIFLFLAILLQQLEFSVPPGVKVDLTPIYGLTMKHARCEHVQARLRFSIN
# Protein skinhead-1 = target: T2, Protein skinhead-1 (Caenorhabditis elegans, UniProt P34707); format: functional
# T2 sequence (P34707 whole entry): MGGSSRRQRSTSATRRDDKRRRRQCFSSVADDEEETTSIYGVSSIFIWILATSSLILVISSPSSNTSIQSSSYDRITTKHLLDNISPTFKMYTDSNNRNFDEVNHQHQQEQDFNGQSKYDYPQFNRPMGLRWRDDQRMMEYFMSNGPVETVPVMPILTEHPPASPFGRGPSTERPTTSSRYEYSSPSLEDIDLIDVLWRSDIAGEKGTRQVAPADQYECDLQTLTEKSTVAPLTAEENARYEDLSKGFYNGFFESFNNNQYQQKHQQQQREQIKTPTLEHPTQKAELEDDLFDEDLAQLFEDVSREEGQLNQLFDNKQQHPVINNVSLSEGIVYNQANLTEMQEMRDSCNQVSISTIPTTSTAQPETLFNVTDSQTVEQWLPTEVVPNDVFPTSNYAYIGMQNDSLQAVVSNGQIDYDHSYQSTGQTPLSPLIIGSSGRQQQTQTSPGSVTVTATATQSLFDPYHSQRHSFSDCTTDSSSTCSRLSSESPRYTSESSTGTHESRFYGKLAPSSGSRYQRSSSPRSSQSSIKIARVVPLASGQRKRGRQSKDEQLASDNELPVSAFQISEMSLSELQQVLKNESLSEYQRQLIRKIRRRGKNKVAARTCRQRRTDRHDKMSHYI
# Cytochrome P450 3A4 = Cytochrome P450 3A4 (Homo sapiens, UniProt P08684);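 further: CYP3A4 tested as one member of a cytochrome P450 panel screen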
# Sequence of Cytochrome P450 3A4 (P08684 whole entry): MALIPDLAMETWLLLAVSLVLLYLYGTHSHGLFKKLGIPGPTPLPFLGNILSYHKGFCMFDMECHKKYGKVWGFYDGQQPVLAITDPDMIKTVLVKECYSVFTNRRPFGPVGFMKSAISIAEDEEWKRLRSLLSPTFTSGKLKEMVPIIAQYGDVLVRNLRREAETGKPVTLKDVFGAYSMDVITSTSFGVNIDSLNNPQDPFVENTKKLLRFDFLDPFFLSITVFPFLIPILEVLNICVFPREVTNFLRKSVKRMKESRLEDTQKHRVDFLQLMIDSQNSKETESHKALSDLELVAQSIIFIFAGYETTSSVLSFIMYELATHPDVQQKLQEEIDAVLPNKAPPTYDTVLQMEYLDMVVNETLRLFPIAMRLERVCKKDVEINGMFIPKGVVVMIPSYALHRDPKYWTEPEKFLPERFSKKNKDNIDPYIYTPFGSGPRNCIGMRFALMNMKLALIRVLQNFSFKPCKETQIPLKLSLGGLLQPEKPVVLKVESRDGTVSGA
# [1] = alpha-synuclein stem-loop luciferase translation blockers – H4 neuroglioma cells, luminescence, confirmation (AID 1988); format: functional, cell-based
# [2] = NIH3T3 cell viability loss – ATP luminescence, mouse fibroblasts, counter-screen, dose response (AID 2010); format: functional, cell-based;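 further: cells exposed to compound for about 90 hours before reading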
# [3] = target: T3, Short transient receptor potential channel 4 (Mus musculus, UniProt Q9QUQ5); assay: block of DAMGO-driven TRPC4 calcium entry – cell-based, HEK293 TRPC4/mu-opioid, Fluo-4 calcium, dose response (AID 434942); format: functional;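 further: potency of inhibitors blocking the TRPC4 calcium response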
# T3 sequence (Q9QUQ5 whole entry): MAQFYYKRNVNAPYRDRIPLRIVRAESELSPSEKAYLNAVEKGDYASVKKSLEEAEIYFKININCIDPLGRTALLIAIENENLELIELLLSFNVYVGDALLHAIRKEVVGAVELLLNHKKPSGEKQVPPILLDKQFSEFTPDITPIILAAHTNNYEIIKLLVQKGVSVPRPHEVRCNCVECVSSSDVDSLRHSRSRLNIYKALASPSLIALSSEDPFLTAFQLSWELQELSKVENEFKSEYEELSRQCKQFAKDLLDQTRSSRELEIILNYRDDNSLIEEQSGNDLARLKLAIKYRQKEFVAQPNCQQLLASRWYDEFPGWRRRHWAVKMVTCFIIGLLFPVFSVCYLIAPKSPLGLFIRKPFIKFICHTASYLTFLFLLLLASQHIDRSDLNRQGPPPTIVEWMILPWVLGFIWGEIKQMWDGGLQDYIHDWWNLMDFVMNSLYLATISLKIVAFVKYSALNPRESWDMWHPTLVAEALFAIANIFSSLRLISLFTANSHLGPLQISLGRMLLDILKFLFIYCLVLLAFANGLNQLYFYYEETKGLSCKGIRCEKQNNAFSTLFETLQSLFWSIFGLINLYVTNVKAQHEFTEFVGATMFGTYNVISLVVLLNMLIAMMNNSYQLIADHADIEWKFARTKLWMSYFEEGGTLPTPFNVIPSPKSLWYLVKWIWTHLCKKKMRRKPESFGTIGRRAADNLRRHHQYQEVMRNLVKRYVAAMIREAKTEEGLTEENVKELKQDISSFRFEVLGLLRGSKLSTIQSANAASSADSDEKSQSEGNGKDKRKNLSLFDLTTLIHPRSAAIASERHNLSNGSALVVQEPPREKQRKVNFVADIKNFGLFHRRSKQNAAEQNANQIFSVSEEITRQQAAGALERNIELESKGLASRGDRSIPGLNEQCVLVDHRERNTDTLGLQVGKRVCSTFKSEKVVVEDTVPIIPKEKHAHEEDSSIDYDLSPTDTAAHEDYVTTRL
# [4] = Trypanosoma cruzi growth suppression in host cells – NIH3T3 host cells, beta-gal luminescence, confirmation (AID 2044); format: functional, cell-based;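 further: intracellular parasites grown in NIH/3T3 mouse fibroblasts as host cells; luminescent beta-galactosidase reporter signal from transgenic T. cruzi replicating inside host cells; inhibitors lower the luminescence signal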
# [5] = non-specific 3'UTR reporter inhibition in Clone20-Shn3RL – cell-based, Renilla luciferase, cherry-picked, counter-screen for Shn3 inhibitor project, dose response (AID 624133); format: functional
# [6] = Luminescence Cell-Based Dose Response HTS to Identify Inhibitors of 5'UTR Stem-Loop Driven Prion Protein mRNA Translation in H4 Neuroglioblastoma Cells. [Related pubchem assays: 1827 (Project Summary), 1813 (Primary HTS)]; format: functional
# [7] = reduction of Shn3 3'UTR-driven luciferase in osteoblasts – cell-based, Clone20 osteoblasts, firefly luciferase, cherry-picked, dose response (AID 624132); format: functional;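 further: firefly luciferase luminescence from reporter carrying the Shn3 3'UTR in osteoblasts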
# [8] = luciferase reporter signal suppression in cells – H4 neuroglioma cells, luminescence, dose response (AID 1990); format: functional, cell-based
# [9] = loss of viability in HepG2 cells – cell-based, CellTiter-Glo, cherry-picked, cytotoxicity control for Shn3 inhibitor project, dose response (AID 624134); format: functional
# INS1 = assay: INS-1E survival protection against cytokine death – cell-based, luminescence, retest, dose response (AID 449756); format: functional; conditions: Rattus norvegicus;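 further: cell death triggered by IL-1 beta plus TNF-alpha plus IFN-gamma mixture; protective hits raise ATP signal compared with cytokine alone wells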
# [10] = target: T4, Ubiquitin-conjugating enzyme E2 N (Homo sapiens, UniProt P61088); format: functional;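 further: Dose-response confirmation in a TR-FRET assay detecting UBC13-driven polyubiquitin chain formation, inhibition measured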
# T4 sequence (P61088 whole entry): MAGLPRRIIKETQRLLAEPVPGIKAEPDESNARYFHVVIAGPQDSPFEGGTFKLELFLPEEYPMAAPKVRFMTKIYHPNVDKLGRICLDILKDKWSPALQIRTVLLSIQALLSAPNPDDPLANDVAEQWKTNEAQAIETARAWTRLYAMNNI
# Cytochrome P450 2D6 = Cytochrome P450 2D6 (Homo sapiens, UniProt P10635);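 further: CYP2D6 member of a cytochrome P450 panel assay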
# Sequence of Cytochrome P450 2D6 (P10635 whole entry): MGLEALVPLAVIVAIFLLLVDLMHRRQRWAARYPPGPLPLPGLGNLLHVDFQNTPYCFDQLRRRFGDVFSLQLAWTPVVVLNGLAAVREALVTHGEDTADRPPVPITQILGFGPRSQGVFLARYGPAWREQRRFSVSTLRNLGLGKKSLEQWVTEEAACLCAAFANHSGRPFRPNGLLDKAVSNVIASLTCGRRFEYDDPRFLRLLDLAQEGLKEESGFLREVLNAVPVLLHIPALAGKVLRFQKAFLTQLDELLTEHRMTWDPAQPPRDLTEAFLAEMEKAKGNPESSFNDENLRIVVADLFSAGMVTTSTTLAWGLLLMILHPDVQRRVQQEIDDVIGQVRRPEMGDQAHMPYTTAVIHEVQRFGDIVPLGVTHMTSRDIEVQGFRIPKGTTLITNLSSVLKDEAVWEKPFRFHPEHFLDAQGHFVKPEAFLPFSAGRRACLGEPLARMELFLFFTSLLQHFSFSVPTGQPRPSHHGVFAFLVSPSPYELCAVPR
# Cytochrome P450 2C19 = Cytochrome P450 2C19 (Homo sapiens, UniProt P33261); assay: Cytochrome panel assay with activity outcomes. Panel member name: p450-cyp2c19 Compounds with AC50 equal or less than 10 uM are considered active; format: functional; conditions: read-out: AC50
# Sequence of Cytochrome P450 2C19 (P33261 whole entry): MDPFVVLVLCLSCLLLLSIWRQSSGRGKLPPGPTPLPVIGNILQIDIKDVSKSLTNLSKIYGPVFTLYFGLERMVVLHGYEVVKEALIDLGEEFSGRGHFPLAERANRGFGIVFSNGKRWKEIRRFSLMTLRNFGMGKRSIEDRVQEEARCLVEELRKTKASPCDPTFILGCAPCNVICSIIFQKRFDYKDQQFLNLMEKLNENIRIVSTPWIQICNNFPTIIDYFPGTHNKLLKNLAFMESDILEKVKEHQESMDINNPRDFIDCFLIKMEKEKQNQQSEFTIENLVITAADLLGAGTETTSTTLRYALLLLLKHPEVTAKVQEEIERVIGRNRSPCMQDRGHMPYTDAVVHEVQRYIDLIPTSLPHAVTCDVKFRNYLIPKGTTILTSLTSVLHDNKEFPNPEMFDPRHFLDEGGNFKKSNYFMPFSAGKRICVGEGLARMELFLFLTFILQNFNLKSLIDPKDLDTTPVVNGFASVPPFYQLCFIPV
# [11] = THP-1 cell cytotoxicity, dose response, cytotoxicity control for non-replicating M. tuberculosis project (AID 489025); format: functional
# [12] = microbe, parasite or virus in culture; format: functional; conditions: Mycobacterium tuberculosis
# cells = format: functional
# Cytochrome P450 2C9 = Cytochrome P450 2C9 (Homo sapiens, UniProt P11712)
# Sequence of Cytochrome P450 2C9 (P11712 whole entry): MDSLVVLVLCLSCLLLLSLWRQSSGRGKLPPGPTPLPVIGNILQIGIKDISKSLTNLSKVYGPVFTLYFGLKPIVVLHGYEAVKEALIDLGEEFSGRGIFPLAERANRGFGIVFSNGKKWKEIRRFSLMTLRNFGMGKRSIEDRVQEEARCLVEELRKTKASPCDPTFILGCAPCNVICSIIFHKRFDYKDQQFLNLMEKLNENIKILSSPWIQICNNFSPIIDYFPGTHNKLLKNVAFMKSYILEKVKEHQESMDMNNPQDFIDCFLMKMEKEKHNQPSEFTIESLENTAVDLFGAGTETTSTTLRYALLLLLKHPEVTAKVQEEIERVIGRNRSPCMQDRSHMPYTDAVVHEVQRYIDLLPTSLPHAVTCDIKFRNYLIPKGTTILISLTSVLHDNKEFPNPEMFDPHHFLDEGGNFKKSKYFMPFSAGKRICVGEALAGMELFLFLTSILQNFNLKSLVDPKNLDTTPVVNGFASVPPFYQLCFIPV
# [13] = blockade of melanocortin 4 receptor signaling – cell-based, plate reader, cherry pick, counter-screen for LGR2 antagonist project, dose response (AID 743444); format: functional;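 further: transfected HEK 293 cells stimulated with alpha-MSH peptide; potency of inhibitors of the alpha-MSH evoked signal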
# [14] = blockers of bursicon-stimulated LGR2 cAMP reporter – cell-based, HEK293, CRE-luciferase reporter, cherry pick, set 2, dose response (AID 743343); format: functional;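 further: transfected cells were stimulated with diluted bursicon conditioned medium after compound addition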
# [15] = target: T5, Rac GTPase-activating protein 1 (Homo sapiens, UniProt Q9H0H5); assay: blockers of MgcRacGAP-driven Rac1 GTP hydrolysis – biochemical, ADP Hunter fluorescence, primary and confirmatory, confirmation (AID 624330); format: functional
# T5 sequence (Q9H0H5 whole entry): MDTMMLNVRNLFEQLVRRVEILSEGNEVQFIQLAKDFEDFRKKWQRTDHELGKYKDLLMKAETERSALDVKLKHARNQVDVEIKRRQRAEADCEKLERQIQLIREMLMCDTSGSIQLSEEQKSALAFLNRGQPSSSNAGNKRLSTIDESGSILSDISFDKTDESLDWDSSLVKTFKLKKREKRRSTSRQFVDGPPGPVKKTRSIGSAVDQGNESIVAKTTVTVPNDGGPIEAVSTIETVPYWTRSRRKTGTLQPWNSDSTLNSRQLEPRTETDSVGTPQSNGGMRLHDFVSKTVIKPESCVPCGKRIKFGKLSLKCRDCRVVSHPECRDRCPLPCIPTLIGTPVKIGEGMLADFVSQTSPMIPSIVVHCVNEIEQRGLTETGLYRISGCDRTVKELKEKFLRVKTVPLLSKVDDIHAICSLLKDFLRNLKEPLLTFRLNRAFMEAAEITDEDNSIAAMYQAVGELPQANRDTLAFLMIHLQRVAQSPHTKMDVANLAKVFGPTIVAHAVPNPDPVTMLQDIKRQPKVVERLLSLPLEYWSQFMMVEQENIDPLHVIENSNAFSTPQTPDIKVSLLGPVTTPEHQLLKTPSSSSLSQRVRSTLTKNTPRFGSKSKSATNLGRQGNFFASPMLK
# [16] = target: Luciferin 4-monooxygenase (Photinus pyralis, UniProt P08659); assay: inhibition of purified Photinus pyralis luciferase – biochemical, luminescence, dose response (AID 1891)
# Sequence of Luciferin 4-monooxygenase (P08659 whole entry): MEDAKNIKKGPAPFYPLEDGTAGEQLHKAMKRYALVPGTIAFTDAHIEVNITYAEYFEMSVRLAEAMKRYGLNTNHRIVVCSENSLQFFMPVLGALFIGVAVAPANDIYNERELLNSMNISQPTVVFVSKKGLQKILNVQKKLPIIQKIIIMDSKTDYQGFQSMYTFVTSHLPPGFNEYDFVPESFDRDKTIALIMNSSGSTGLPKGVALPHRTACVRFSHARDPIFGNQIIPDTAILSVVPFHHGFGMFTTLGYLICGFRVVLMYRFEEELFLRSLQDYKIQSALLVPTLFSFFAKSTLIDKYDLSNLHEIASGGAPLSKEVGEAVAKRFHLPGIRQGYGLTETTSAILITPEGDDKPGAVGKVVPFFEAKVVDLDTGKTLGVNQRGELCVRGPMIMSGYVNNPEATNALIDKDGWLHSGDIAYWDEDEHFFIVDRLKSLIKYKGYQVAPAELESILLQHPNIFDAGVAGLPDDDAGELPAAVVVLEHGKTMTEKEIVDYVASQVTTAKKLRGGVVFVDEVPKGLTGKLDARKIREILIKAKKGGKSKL
# [17] = Luminescence Cell-Based Dose Response HTS to Identify Activators of Luciferase Translation or Activity in H4 […] Cells. [Related pubchem assays: 1829 (Project Summary), 1814 (Primary HTS)]; format: functional
# [18] = Luminescence Cell-Based Dose Confirmation HTS to Identify Inhibitors of Platelet Dense Granule Release. [Related pubchem assays: 1663 (Primary HTS), 1678 (Summary of Project)]; format: functional
# [19] = P. falciparum Dd2 growth inhibitors, dose response, SYBR Green, cherry-picked samples (AID 1159567); format: functional, cell-based
smiles,measurement,setting,value
O=C1CC2(CCCC2)CC(=O)N1CCCCNC[C@H]1COc2ccccc2O1,AC50,Cytochrome P450 1A2,79.4 µM (inconclusive)
CCCCCNC(=O)c1ccccc1SC,IC50,Protein skinhead-1,74.6 µM (inactive)
Oc1ccc(CCNCc2cc3c(cc2Br)OCO3)cc1,AC50,Cytochrome P450 1A2,1 µM (inconclusive)
same,AC50,Cytochrome P450 3A4,3.98 µM (inconclusive)
O=S(=O)(O)c1ccc2c(/N=N\c3cccc4ccccc34)c(O)c(S(=O)(=O)O)cc2c1,AC50,Cytochrome P450 1A2,5.01 µM (inconclusive)
CCOc1cc(CNCCCN2CCOCC2)cc(Br)c1OCc1ccccc1Cl,EC50,[1],> 120 µM (not active)
same,EC50,[2],12 µM (active)
same,EC50,[3],4.22 µM (active)
same,EC50,[4],539 nM (active)
same,AC50,[5],19.3 µM (active)
same,EC50,[6],> 120 µM (not active)
same,AC50,[7],9.31 µM (active)
same,EC50,[8],> 120 µM (not active)
same,AC50,[9],11 µM (active)
c1ccc(C2(Cn3ccc4ccccc43)OCCO2)cc1,IC50,Protein skinhead-1,> 100 µM (inactive)
same,AC50,INS1,40.2 µM (active)
CC(C)(C)NC(=O)CN(C(=O)CCC(=O)Nc1nccs1)c1cccc(C(F)(F)F)c1,IC50,Protein skinhead-1,> 100 µM (inactive)
O=C(C[n+]1cccc(CNC(=O)c2ccc(OC(F)F)cc2)c1)Nc1ccc(SC(F)F)cc1,EC50,[3],7.5 µM (active)
same,IC50,[10],> 20 µM (inactive)
O=C(c1cccc(F)c1)N1CCC2(CCCN(C(c3ccccc3)c3ccccc3)C2)CC1,AC50,Cytochrome P450 1A2,6.31 µM (inconclusive)
same,AC50,Cytochrome P450 2D6,10 µM (inconclusive)
same,AC50,Cytochrome P450 2C19,5.01 µM (inconclusive)
Cn1c(SCc2c(F)cccc2Cl)nc2c(c1=O)SCC2,CC50,[11],> 40 µM (active)
CC(C)C1NC(=S)N(Cc2ccccc2)C1=O (stereo unspecified),AC50,Cytochrome P450 1A2,20 µM (inconclusive)
Nc1nc2ccccc2n1CCOc1ccccc1Cl,CC50,[12],> 40 µM (active)
same,IC50,cells,23.8 µM (active)
same,CC50,[11],20.6 µM (active)
O=C(Nc1cnn(Cc2ccc(Cl)cc2)c1)c1ccc([N+](=O)[O-])cc1,AC50,Cytochrome P450 1A2,6.31 µM (inconclusive)
same,AC50,Cytochrome P450 2C19,2.24 µM (inconclusive)
same,AC50,Cytochrome P450 2C9,501 nM (inconclusive)
c1nc(CCO[C@H]2CCCCO2)cc2cc3c(cc12)OCO3,AC50,[13],3.45 µM (active)
same,AC50,[14],2.56 µM (active)
CC1(C(=O)Nc2cnc3ccccc3c2)CCN1C(=O)c1ccccc1CCc1ccccc1 (stereo unspecified),IC50,Protein skinhead-1,> 100 µM (inactive)
O=C1C(=Cc2ccccn2)CCc2ccccc21,IC50,Protein skinhead-1,43.7 µM (active)
CCN(Cc1ccccc1)c1ccc(/C=N/N2CCOCC2)cc1,IC50,[15],63.2 µM (active)
N/C(=N\N=C\c1ccc(O)cc1)c1nonc1N,EC50,[16],8.45 µM (active)
same,EC50,[17],334 nM (active)
same,IC50,[15],23.4 µM (active)
same,EC50,[18],1.07 µM (active)
CCn1c2ccccc2c2cc(N)ccc21,IC50,[15],64.1 µM (active)
COc1ccccc1N=NNc1ccccc1OC,IC50,[15],90.3 µM (active)
C[C@@H]1CN([C@@H](C)CO)S(=O)(=O)c2ccc(C#CC3(O)CCCC3)cc2O[C@H]1CN(C)C(=O)c1ccccc1,AC50,[19],4.33 µM (active)
CCC(=O)N1CCCCN2[C@H](C1)[C@H](c1ccc(-c3cccnc3)cc1)[C@@H]2CO,AC50,[19],21.9 µM (active)
COc1ccccc1NC(=O)N1CCCCN2[C@H](C1)[C@H](c1ccc(C#CC3CC3)cc1)[C@@H]2CO,AC50,[19],5.95 µM (active)
O=C(O)c1cnc2c(ccc3ncc(C(=O)O)c(O)c32)c1O,AC50,Cytochrome P450 1A2,5.01 µM (inconclusive)
CC[N+](C)(CC)CCOC(=O)C1c2ccccc2Oc2ccccc21 [METHANTHELINE],AC50,Cytochrome P450 1A2,10 µM (inconclusive)

# Reference: ChEMBL document CHEMBL1201862, “PubChem BioAssay data set” (2004)
